Assay results from article PMC8185074, “Anchor extension: a structure-guided approach to design cyclic peptides targeting enzyme active sites” (Nature Communications, 2021).
Peptide text beside a SMILES is read from it.

Legend:
Type in all cases: biochemical
[1] = molecular target: T1, HDAC1 (Homo sapiens, UniProt Q13547); test: HDAC1 inhibition, full IC50 measurement (Reaction Biology; fluorogenic p53 peptide RHKK(Ac)AMC); details: t1/t2 replicates
T1 construct: purchased Reaction Biology Corporation (assay run by the CRO)
T1 sequence (Q13547 whole entry): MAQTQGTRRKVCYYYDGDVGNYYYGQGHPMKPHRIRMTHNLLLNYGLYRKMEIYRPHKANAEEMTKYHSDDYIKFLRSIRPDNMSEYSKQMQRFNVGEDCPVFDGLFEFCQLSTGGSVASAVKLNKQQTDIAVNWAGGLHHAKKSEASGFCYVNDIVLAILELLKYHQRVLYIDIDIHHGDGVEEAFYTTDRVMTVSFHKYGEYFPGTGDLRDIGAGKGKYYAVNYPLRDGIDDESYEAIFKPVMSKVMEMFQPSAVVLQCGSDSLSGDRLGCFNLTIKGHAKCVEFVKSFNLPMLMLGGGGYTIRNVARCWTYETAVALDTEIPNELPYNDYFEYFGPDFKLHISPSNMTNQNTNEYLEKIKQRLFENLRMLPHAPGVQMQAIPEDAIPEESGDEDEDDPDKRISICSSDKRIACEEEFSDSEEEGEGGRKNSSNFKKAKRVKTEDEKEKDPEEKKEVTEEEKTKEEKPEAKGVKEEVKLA
How it was run: (§1)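 Inhibitory peptides were acoustically dispensed with enzyme, then substrate added; 1 h at 30 °C. Developer stopped reaction; plateau endpoint fluorescence (360/460 nm) gave IC50.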

[2] = molecular target: T2, HDAC2 (Homo sapiens, UniProt Q92769); test: HDAC2 inhibition, full IC50 measurement (Reaction Biology; fluorogenic p53 peptide RHKK(Ac)AMC)
T2 construct: purchased Reaction Biology Corporation (assay run by the CRO)
T2 sequence (Q92769 whole entry): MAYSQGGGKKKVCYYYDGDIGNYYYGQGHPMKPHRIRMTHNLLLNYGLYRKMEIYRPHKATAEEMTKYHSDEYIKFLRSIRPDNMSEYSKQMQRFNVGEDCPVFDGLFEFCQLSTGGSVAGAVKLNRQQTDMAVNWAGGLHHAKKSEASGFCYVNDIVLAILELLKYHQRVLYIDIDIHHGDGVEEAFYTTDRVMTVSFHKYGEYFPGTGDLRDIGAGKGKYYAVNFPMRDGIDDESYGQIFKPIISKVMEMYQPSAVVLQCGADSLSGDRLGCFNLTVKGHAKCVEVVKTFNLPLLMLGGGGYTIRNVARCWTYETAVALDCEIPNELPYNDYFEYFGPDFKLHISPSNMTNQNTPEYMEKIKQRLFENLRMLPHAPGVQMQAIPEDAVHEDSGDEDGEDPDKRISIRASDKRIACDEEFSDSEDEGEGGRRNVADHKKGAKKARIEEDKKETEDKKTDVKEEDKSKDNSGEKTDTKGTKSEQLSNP
How it was run: as §1

[3] = molecular target: T2, HDAC2; test: Initial HDAC2 IC50 estimate (BPS Biosciences HDAC fluorogenic assay kit); details: Supplementary Dataset 2; read-out: HDAC2 activity (initial activity)
How it was run: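 Inhibition measured by kit-based fluorogenic HDAC activity assays, with each point in duplicate or triplicate. Values come from a full 1 µM–100 pM series (1:10 steps) or are range estimates from just 20 nM and 200 nM.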

`NCCCC[C@@H]1NC(=O)[C@@H]2CCCN2C(=O)[C@H](CC(N)=O)NC(=O)[C@H](CCCCCS)NC(=O)CNC(=O)[C@H](Cc2c[nH]c3ccccc23)NC(=O)[C@@H](CCCCN)NC(=O)[C@H](CCC(N)=O)NC1=O` [des1.1.0, SHA-Asn-Pro-Lys-Gln-dLys-Trp-Gly] (HELM PEPTIDE1{G.[O=C([C@H](CCCCCS)N[*:1])[*:2]].N.P.K.Q.[dK].W}$PEPTIDE1,PEPTIDE1,1:R1-8:R2$$$V2.0) was tested, and the “HDAC1 activity raw data (signal)” value ([1]; peptide conc. 1.00E-05 M, listed as des1.1.0_t1) was 20784, the “HDAC1 activity raw data (signal)” value ([1]; peptide conc. 1.00E-05 M, listed as des1.1.0_t2) was 14494 and the “HDAC1 activity raw data (signal)” value ([1]; peptide conc. 1.11E-06 M, listed as des1.1.0_t1) was 173781. For the same molecule, the “HDAC1 activity raw data (signal)” value ([1]; peptide conc. 1.11E-06 M, listed as des1.1.0_t2) was 153537, the “HDAC1 activity raw data (signal)” value ([1]; peptide conc. 1.23E-07 M, listed as des1.1.0_t1) was 723204 and the “HDAC1 activity raw data (signal)” value ([1]; peptide conc. 1.23E-07 M, listed as des1.1.0_t2) was 656726. The “HDAC1 activity raw data (signal)” value ([1]; peptide conc. 1.37E-08 M, listed as des1.1.0_t1) was 1174733, the “HDAC1 activity raw data (signal)” value ([1]; peptide conc. 1.37E-08 M, listed as des1.1.0_t2) was 1037204 and the “HDAC1 activity raw data (signal)” value ([1]; peptide conc. 1.52E-09 M, listed as des1.1.0_t1) was 1283411. The “HDAC1 activity raw data (signal)” value ([1]; peptide conc. 1.52E-09 M, listed as des1.1.0_t2) was 1084142, the “HDAC1 activity raw data (signal)” value ([1]; peptide conc. 3.33E-06 M, listed as des1.1.0_t1) was 63841 and the “HDAC1 activity raw data (signal)” value ([1]; peptide conc. 3.33E-06 M, listed as des1.1.0_t2) was 53160. For the same molecule, the “HDAC1 activity raw data (signal)” value ([1]; peptide conc. 3.70E-07 M, listed as des1.1.0_t1) was 422237, the “HDAC1 activity raw data (signal)” value ([1]; peptide conc. 3.70E-07 M, listed as des1.1.0_t2) was 392419 and the “HDAC1 activity raw data (signal)” value ([1]; peptide conc. 4.12E-08 M, listed as des1.1.0_t1) was 1039124. For the same molecule, the “HDAC1 activity raw data (signal)” value ([1]; peptide conc. 4.12E-08 M, listed as des1.1.0_t2) was 863645, the “HDAC1 activity raw data (signal)” value ([1]; peptide conc. 4.57E-09 M, listed as des1.1.0_t1) was 1182029 and the “HDAC1 activity raw data (signal)” value ([1]; peptide conc. 4.57E-09 M, listed as des1.1.0_t2) was 1065379. The “HDAC1 activity raw data (signal)” value ([1]; peptide conc. 5.08E-10 M, listed as des1.1.0_t1) was 1239936, the “HDAC1 activity raw data (signal)” value ([1]; peptide conc. 5.08E-10 M, listed as des1.1.0_t2) was 1111104 and the “HDAC2 activity raw data (signal)” value ([2]; Conc. 1.00E-05 M, t1) was 26927. The “HDAC2 activity raw data (signal)” value ([2]; Conc. 1.00E-05 M, t2) was 32005, the “HDAC2 activity raw data (signal)” value ([2]; Conc. 1.11E-06 M, t1) was 219707 and the “HDAC2 activity raw data (signal)” value ([2]; Conc. 1.11E-06 M, t2) was 218492. For the same molecule, the “HDAC2 activity raw data (signal)” value ([2]; Conc. 1.23E-07 M, t1) was 761586, the “HDAC2 activity raw data (signal)” value ([2]; Conc. 1.23E-07 M, t2) was 802228 and the “HDAC2 activity raw data (signal)” value ([2]; Conc. 1.37E-08 M, t1) was 1027147. For the same molecule, the “HDAC2 activity raw data (signal)” value ([2]; Conc. 1.37E-08 M, t2) was 1098979, the “HDAC2 activity raw data (signal)” value ([2]; Conc. 1.52E-09 M, t1) was 1105616 and the “HDAC2 activity raw data (signal)” value ([2]; Conc. 1.52E-09 M, t2) was 1105020. For the same molecule, the “HDAC2 activity raw data (signal)” value ([2]; Conc. 3.33E-06 M, t1) was 102737, the “HDAC2 activity raw data (signal)” value ([2]; Conc. 3.33E-06 M, t2) was 85727 and the “HDAC2 activity raw data (signal)” value ([2]; Conc. 3.70E-07 M, t1) was 469170. The “HDAC2 activity raw data (signal)” value ([2]; Conc. 3.70E-07 M, t2) was 506124, the “HDAC2 activity raw data (signal)” value ([2]; Conc. 4.12E-08 M, t1) was 943203 and the “HDAC2 activity raw data (signal)” value ([2]; Conc. 4.12E-08 M, t2) was 906297. The “HDAC2 activity raw data (signal)” value ([2]; Conc. 4.57E-09 M, t1) was 1010930, the “HDAC2 activity raw data (signal)” value ([2]; Conc. 4.57E-09 M, t2) was 1048769 and the “HDAC2 activity raw data (signal)” value ([2]; Conc. 5.08E-10 M, t1) was 1134293. The “HDAC2 activity raw data (signal)” value ([2]; Conc. 5.08E-10 M, t2) was 1187103, the IC50 ([2]; figure legends, Supp. Table 1, read-out: HDAC2 IC50) was 289 nM and the IC50 [3] was 10 to 100 nM.
In the case of `CCCC[C@H]1NC(=O)[C@H](Cc2ccccc2)NC(=O)[C@H](CCCCCS)NC(=O)[C@@H](CCCNC(=N)N)NC(=O)[C@H](CC(=O)O)NC(=O)[C@@H](CO)NC(=O)[C@@H](C)NC(=O)[C@H](CCCCN)NC1=O` [des4.3.1, SHA-Phe-dNle-Lys-dAla-dSer-Asp-dArg] (HELM PEPTIDE1{D.[dR].[O=C([C@H](CCCCCS)N[*:1])[*:2]].F.[CCCC[C@@H](N[*:1])C(=O)[*:2]].K.[dA].[dS]}$PEPTIDE1,PEPTIDE1,1:R1-8:R2$$$V2.0), the “HDAC1 activity raw data (signal)” value ([1]; peptide conc. 1.00E-05 M, listed as des4.3.1_t1) is reported as 61312, the “HDAC1 activity raw data (signal)” value ([1]; peptide conc. 1.00E-05 M, listed as des4.3.1_t2) is reported as 56616 and the “HDAC1 activity raw data (signal)” value ([1]; peptide conc. 1.11E-06 M, listed as des4.3.1_t1) is reported as 524367. The “HDAC1 activity raw data (signal)” value ([1]; peptide conc. 1.11E-06 M, listed as des4.3.1_t2) was 474109, the “HDAC1 activity raw data (signal)” value ([1]; peptide conc. 1.23E-07 M, listed as des4.3.1_t1) was 1051662 and the “HDAC1 activity raw data (signal)” value ([1]; peptide conc. 1.23E-07 M, listed as des4.3.1_t2) was 1036587. The “HDAC1 activity raw data (signal)” value ([1]; peptide conc. 1.37E-08 M, listed as des4.3.1_t1) was 1215949, the “HDAC1 activity raw data (signal)” value ([1]; peptide conc. 1.37E-08 M, listed as des4.3.1_t2) was 1295956 and the “HDAC1 activity raw data (signal)” value ([1]; peptide conc. 1.52E-09 M, listed as des4.3.1_t1) was 1351214. For the same molecule, the “HDAC1 activity raw data (signal)” value ([1]; peptide conc. 1.52E-09 M, listed as des4.3.1_t2) was 1240672, the “HDAC1 activity raw data (signal)” value ([1]; peptide conc. 3.33E-06 M, listed as des4.3.1_t1) was 212161 and the “HDAC1 activity raw data (signal)” value ([1]; peptide conc. 3.33E-06 M, listed as des4.3.1_t2) was 198550. The “HDAC1 activity raw data (signal)” value ([1]; peptide conc. 3.70E-07 M, listed as des4.3.1_t1) was 878996, the “HDAC1 activity raw data (signal)” value ([1]; peptide conc. 3.70E-07 M, listed as des4.3.1_t2) was 808933 and the “HDAC1 activity raw data (signal)” value ([1]; peptide conc. 4.12E-08 M, listed as des4.3.1_t1) was 1147207. The “HDAC1 activity raw data (signal)” value ([1]; peptide conc. 4.12E-08 M, listed as des4.3.1_t2) was 1235202, the “HDAC1 activity raw data (signal)” value ([1]; peptide conc. 4.57E-09 M, listed as des4.3.1_t1) was 1224928 and the “HDAC1 activity raw data (signal)” value ([1]; peptide conc. 4.57E-09 M, listed as des4.3.1_t2) was 1148569. For the same molecule, the “HDAC1 activity raw data (signal)” value ([1]; peptide conc. 5.08E-10 M, listed as des4.3.1_t1) was 1219331, the “HDAC1 activity raw data (signal)” value ([1]; peptide conc. 5.08E-10 M, listed as des4.3.1_t2) was 1171745 and the “HDAC2 activity raw data (signal)” value ([2]; Conc. 1.00E-05 M, t1) was 97979. The “HDAC2 activity raw data (signal)” value ([2]; Conc. 1.00E-05 M, t2) was 118920, the “HDAC2 activity raw data (signal)” value ([2]; Conc. 1.11E-06 M, t1) was 710265 and the “HDAC2 activity raw data (signal)” value ([2]; Conc. 1.11E-06 M, t2) was 678505. For the same molecule, the “HDAC2 activity raw data (signal)” value ([2]; Conc. 1.23E-07 M, t1) was 1050894, the “HDAC2 activity raw data (signal)” value ([2]; Conc. 1.23E-07 M, t2) was 1073616 and the “HDAC2 activity raw data (signal)” value ([2]; Conc. 1.37E-08 M, t1) was 1089277. For the same molecule, the “HDAC2 activity raw data (signal)” value ([2]; Conc. 1.37E-08 M, t2) was 1188700, the “HDAC2 activity raw data (signal)” value ([2]; Conc. 1.52E-09 M, t1) was 1283576 and the “HDAC2 activity raw data (signal)” value ([2]; Conc. 1.52E-09 M, t2) was 1146756. The “HDAC2 activity raw data (signal)” value ([2]; Conc. 3.33E-06 M, t1) was 321418, the “HDAC2 activity raw data (signal)” value ([2]; Conc. 3.33E-06 M, t2) was 369190 and the “HDAC2 activity raw data (signal)” value ([2]; Conc. 3.70E-07 M, t1) was 905304. For the same molecule, the “HDAC2 activity raw data (signal)” value ([2]; Conc. 3.70E-07 M, t2) was 972905, the “HDAC2 activity raw data (signal)” value ([2]; Conc. 4.12E-08 M, t1) was 1002980 and the “HDAC2 activity raw data (signal)” value ([2]; Conc. 4.12E-08 M, t2) was 1204296. The “HDAC2 activity raw data (signal)” value ([2]; Conc. 4.57E-09 M, t1) was 1158146, the “HDAC2 activity raw data (signal)” value ([2]; Conc. 4.57E-09 M, t2) was 1127910 and the “HDAC2 activity raw data (signal)” value ([2]; Conc. 5.08E-10 M, t1) was 1185807. The “HDAC2 activity raw data (signal)” value ([2]; Conc. 5.08E-10 M, t2) was 1137899, the IC50 ([2]; unit printed only in the axis title, read-out: HDAC2 IC50 (printed in dose-response picture)) was 1500 nM and the IC50 [3] was 350 nM.
